Key:
CK = assay: Creatine kinase assay in ERα infected HAECT-1 cells (Table 2); assay type: cell-based, human; conditions: Homo sapiens; for Emax: HAECT1, read-out: CK % Efficacy; for EC50: HAECT1
Description: T-175 flasks of 100% confluent HAECT-1 cells (immortalized human aortic endothelial cells) were washed with 8 ml of HBSS (HEPES buffered saline solution) and infected for fours hours with 6 ml of a 1:10 dilution of Ad5-wt-hERα virus (an adenovirus transfection vector that mediates CMV promoter driven expression of human ERα) in phenol red free Endothelial Cell Basal medium (Clonetics, San Diego, Calif., Catalog # CC-3129) containing 0.25% bovine serum albumin (EDM-BSA). After four hours, cells were washed with EDM-BSA and incubated overnight in the same medium. Following overnight incubation, cells were washed with EDM-BSA and infected for 2 hours with 6 ml of a 1:10 dilution of Ad5-3x(NFκB).Luc virus (Adenovirus luciferase expression vector driven by three repeats of the MHC NFκb sites 5′ to the thymidine kinase promoter) in EDM-BSA. After two hours, cells were washed and incubated at 34° C. for one hour. Cells were then washed, trypsinized, counted, and resuspended in 95% FBS/5% dimethylsulfoxide at a concentration of […], frozen as 1 or 5 ml aliquots in cryo-vials and stored at −150° C. Control (no ER infection) cells were processed as above without Ad5-wt-hERα virus infection.
ERα infected HAECT-1 cells or control cells were thawed, diluted 42× in warm EBM-BSA, plated into 96-well plates at 0.1 ml/well and incubated for 4 hours at 34° C. Test compounds were added to the cells at 2× stocks in EBM-BSA containing 2 ng/ml IL-1β Ad6-IL-6(1250 bp).Luc virus and plates were returned to the incubator (34° C.). After […], cells were lysed with 50 μl of Promega Cell Culture Lysis reagenet for about 5 minutes at room temperature on a shaker. After lysing, 15 μl of lysate is transferred to luminometer plates for luciferase determination. Luciferase activity is evaluated using a Perkin Elmer Victor2 1420 multilabel counter. Creatine kinase was determined from the rate of increase in A340 following addition of 100 μl of CK assay reagent (Sigma catalog no. 47-10) to the remainder of the cell lysate.
For IC50 and EC50 calculations, mean IL-6, luciferase or CK values versus log10 of the compound concentration were fitted to a four parameter logistic equation. The IC50/EC50 value, ‘Hill slope,’ upper and lower limits of the curve were iteratively estimated.

ER/IL-6 = assay: Endothelial Cell ER/IL-6 Assay, IL-6 promoter luciferase (Table 2); assay type: cell-based, human; conditions: Homo sapiens, HAECT1, ERα infected HAECT-1 cells, IL-1β; for Emax: read-out: IL6 luc % Efficacy; for IC50: read-out: IL6 luc IC50
Method in brief: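 HAECT-1 human aortic endothelial cells adenovirally expressing human ERα (or non-ER-infected controls) received compounds as 2× stocks with 2 ng/ml IL-1β and IL-6 promoter (1250 bp)-luciferase adenovirus for […] at 34 °C. ER/IL-6 was read as lysate luciferase and CK as the rate of A340 increase with CK reagent. IC50/EC50 came from four-parameter logistic fits.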

NF-κB = assay: IL-1β stimulated NF-κB reporter activity in ERα expressing HAECT-1 cells; assay type: cell-based, human; conditions: 1 μM ICI, 1 μM compound 67, FIG. 1B
Description: HAECT-1 cells (Chadwick C C, et al., Proc Natl Acad Sciences, 2005, 102(7): 2543-2548) were cultured in EGM (GIBCO, Rockville, Md.) containing 10% FBS, 1% GlutaMAX and 0.1% Antimycotic-Antibiotic in Falcon T-175 culture flasks at 34° C. in 5% CO2 and infected for four hours with Ad5-wt-ER virus. After overnight recovery, the cells were infected for 2 hours with the Ad5-3x(NFκB).Luc or Ad5-IL6.Luc virus. Compound 67 and 2 ng/ml IL-1 were added to the cells for 15-20 h and the cell lysate was assayed for luciferase activity and evaluated for CK expression (Stanbio Laboratories, Texas). The values are reported as mean±SEM with n=4 from at least 3 independent experiments.

Row | SMILES | melting point | IC50 (ER/IL-6) [nM] | EC50 (CK) [nM] | Emax (CK) [%] | Emax (ER/IL-6) [%] | antagonism of the activity of compound 67 on NF-κB reporter (NF-κB)
1 | COC(=O)C(C)(C#N)C(c1ccccc1OC)c1ccnc2ccccc12 (centres unmarked) [Example 160, Methyl 2-cyano-3-(2-methoxyphenyl)-2-methyl-3-(quinolin-4-yl)propanoate] | 192 to 193.9 °C | 1260 | – | -10 | 82 | –
2 | COC(=O)[C@@](C#N)(Cc1ccc(Br)cc1)[C@H](c1ccccc1OC)c1cccc2ccccc12 (relative stereo) [Example 152, Methyl (2S*,3S*)-2-(4-bromobenzyl)-2-cyano-3-(2-methoxyphenyl)-3-(1-naphthyl)propanoate] | 218 to 219 °C | 19 | 85 | 14 | 130 | –
3 | COc1ccccc1C(c1ccnc2ccccc12)C(C#N)(Cc1cccnc1)C(=O)OC(C)(C)C (centres unmarked) [Example 166, tert-Butyl 2-cyano-3-(2-methoxyphenyl)-2-(pyridin-3-ylmethyl)-3-quinolin-4-ylpropanoate] | 225 to 228 °C | 353 | – | -13 | 77 | –
4 | COC[C@](C#N)(C(=O)OC)[C@H](c1ccccc1OC)c1cccc2ccccc12 (relative stereo) [Example 141, Methyl (2S*,3S*)-2-cyano-2-(methoxymethyl)-3-(2-methoxyphenyl)-3-(1-naphthyl)propanoate] | 148.3 to 151 °C | – | – | 39 | 123 | –
5 | COC(=O)[C@@](C#N)(Cc1ccc(-c2cccc(C(F)(F)F)c2)cc1)[C@H](c1ccccc1OC)c1cccc2ccccc12 (relative stereo) [Example 153, Methyl (2S*,3S*)-2-cyano-3-(2-methoxyphenyl)-3-(1-naphthyl)-2-{[3′-(trifluoromethyl)-1,1′-biphenyl-4-yl]methyl}propanoate] | 202 to 204.1 °C | 149 | – | 15 | 150 | –
6 | COc1ccccc1C1CCN(C(=O)[C@](C)(C#N)[C@H](c2ccccc2OC)c2cccc3ccccc23)CC1 [Example 138, (2S,3S)-3-(2-methoxyphenyl)-2-{[4-(2-methoxyphenyl)piperidin-1-yl]carbonyl}-2-methyl-3-(1-naphthyl)propanenitrile] | 135 to 140 °C | 15 | 34 | 49 | 131 | –
7 | COc1ccccc1[C@H](c1cccc2ccccc12)[C@@](C)(C#N)C(=O)N1CCN(c2cccc(Br)c2)CC1 [Example 131, (2S)-3-[4-(3-bromophenyl)piperazin-1-yl]-2-[(S)-(2-methoxyphenyl)(1-naphthyl)methyl]-2-methyl-3-oxopropanenitrile] | 180 to 182 °C | 15 | 212 | 48 | 119 | –
8 | COc1ccccc1[C@H](c1cccc2ccccc12)[C@@](C)(C#N)C(=O)N1CCC(N2C(=O)Cc3ccccc32)CC1 [Example 132, (2S,3S)-3-(2-methoxyphenyl)-2-methyl-3-(1-naphthyl)-2-{[4-(2-oxo-2,3-dihydro-1H-indol-1-yl)piperidin-1-yl]carbonyl}propanenitrile] | 227 to 230 °C | 122 | 298 | 57 | 92 | –
9 | C[C@]12CC[C@@H]3c4ccc(O)cc4C[C@@H](CCCCCCCCC[S+]([O-])CCCC(F)(F)C(F)(F)F)[C@H]3[C@@H]1CC[C@@H]2O (some centres unmarked) [ICI 182,780, reference compound] | – | – | – | – | – | effectively antagonized
10 | COC(=O)[C@](C#N)(Cc1cccnc1)[C@@H](c1ccccc1OC)c1cccc2ccccc12 [Example 155, Methyl (2R,3R)-2-cyano-3-(2-methoxyphenyl)-3-(1-naphthyl)-2-(pyridin-3-ylmethyl)propanoate] | 193 °C (dec.) | 2 | 6 | 33 | 105 | –

Continued, in another order:

Row | melting point | IC50 (ER/IL-6) [nM] | EC50 (CK) [nM] | SMILES | Emax (CK) [%] | Emax (ER/IL-6) [%] | antagonism of the activity of compound 67 on NF-κB reporter (NF-κB)
11 | 143 to 144 °C | 276 | – | COc1ccccc1[C@H](c1cccc2ccccc12)[C@@](C)(C#N)C(=O)N1CCN(c2cnccn2)CC1 [Example 214, (2S,3S)-3-(2-methoxyphenyl)-2-methyl-3-(1-naphthyl)-2-[(4-pyrazin-2-ylpiperazin-1-yl)carbonyl]propanenitrile] | 12 | 136 | –
12 | 202 to 204 °C | 2460 | – | COc1ccccc1[C@H](c1cccc2ccccc12)[C@@](C)(C#N)C(=O)N1CCC(O)(c2ccc(Cl)cc2)CC1 [Example 186, (2S)-3-[4-(4-chlorophenyl)-4-hydroxypiperidin-1-yl]-2-[(S)-(2-methoxyphenyl)(1-naphthyl)methyl]-2-methyl-3-oxopropanenitrile] | 11 | 60 | –
13 | 267 to 268 °C | 21 | 50 | COc1ccccc1[C@H](c1cccc2ccccc12)[C@@](C)(C#N)C(=O)N1CCC(c2c[nH]c3ccccc23)CC1 [Example 187, (2S)-3-[4-(1H-indol-3-yl)piperidin-1-yl]-2-[(S)-(2-methoxyphenyl)(1-naphthyl)methyl]-2-methyl-3-oxopropanenitrile] | 48 | 134 | –
14 | 197 to 200 °C | 361 | 481 | COc1ccccc1[C@H](c1cccc2ccccc12)[C@@](C)(C#N)C(=O)N1CCC(n2c(=O)[nH]c3ccccc32)CC1 [Example 183, (2S,3S)-3-(2-methoxyphenyl)-2-methyl-3-(1-naphthyl)-2-{[4-(2-oxo-2,3-dihydro-1H-benzimidazol-1-yl)piperidin-1-yl]carbonyl}propanenitrile] | 63 | 196 | –
15 | 149 °C | 38 | 318 | COC[C@](C#N)(C(=O)N1CCN(c2cnccn2)CC1)[C@H](c1ccccc1OC)c1cccc2ccccc12 [Example 223, (2S,3S)-2-(methoxymethyl)-3-(2-methoxyphenyl)-3-(1-naphthyl)-2-[(4-pyrazin-2-ylpiperazin-1-yl)carbonyl]propanenitrile] | 24 | 154 | –
16 | 174 to 175 °C | 117 | – | COCC(C#N)(C(=O)N1CCN(CCCN(C)C)CC1)C(c1ccccc1OC)c1cccc2ccccc12 (centres unmarked) [Example 204, 3-{4-[3-(dimethylamino)propyl]piperazin-1-yl}-2-(methoxymethyl)-2-[(2-methoxyphenyl)(1-naphthyl)methyl]-3-oxopropanenitrile] | -34 | 23 | –

Reference: patent publication US20050256132A1, “Use of ER selective NF-kB inhibitors for the treatment of sepsis” (priority 2003, published 2005)
